Data reported in patent US10364256B2 (GlaxoSmithKline Intellectual Property Development Limited, priority 2015, dated 2019).

Key:
[1] = biological target: T1, full length Keap1 protein / full length NRF2 protein (Homo sapiens, UniProt Q14145); experiment: NRF2-Keap1 TR-FRET Low Protein Assay; type: binding; details: 1.25 nM Keap1 FlagHis and 2.5 nM biotin-NRF2 added
T1 construct: full length NRF2 protein and full length Keap1 protein (Keap1 exists a dimer) are used; His
Outline: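 Flag-tagged full-length Keap1 was preincubated with compound (3-fold series) for 2.25 h at 37 °C in Tris pH 8.0/MgCl2/NaCl/BSA/DTT/CHAPS. Biotin-Avi-NRF2 (added at 2.5 nM) was then bound for 1.25 h at 4 °C. Eu-streptavidin/anti-Flag-APC TR-FRET (665/615 nm) was read after 1 h at RT, and pIC50 came from a four-parameter fit.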

[2] = biological target: T1, full length Keap1 protein / full length NRF2 protein; experiment: NRF2-Keap1 TR-FRET Assay; type: binding; details: 25 nM Keap1-FlagHis and 50 nM biotin-NRF2 added
Outline: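 Displacement of biotinylated full-length NRF2 from full-length Keap1 read by Eu/APC TR-FRET (665/615 nm) after 1 h detection at RT. Compound, 3-fold series, first incubated with Keap1 at 37 °C for 2.25 h, NRF2 then added at 4 °C for 1.25 h; pIC50 by four-parameter equation.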

T1 sequence (Q14145 whole entry): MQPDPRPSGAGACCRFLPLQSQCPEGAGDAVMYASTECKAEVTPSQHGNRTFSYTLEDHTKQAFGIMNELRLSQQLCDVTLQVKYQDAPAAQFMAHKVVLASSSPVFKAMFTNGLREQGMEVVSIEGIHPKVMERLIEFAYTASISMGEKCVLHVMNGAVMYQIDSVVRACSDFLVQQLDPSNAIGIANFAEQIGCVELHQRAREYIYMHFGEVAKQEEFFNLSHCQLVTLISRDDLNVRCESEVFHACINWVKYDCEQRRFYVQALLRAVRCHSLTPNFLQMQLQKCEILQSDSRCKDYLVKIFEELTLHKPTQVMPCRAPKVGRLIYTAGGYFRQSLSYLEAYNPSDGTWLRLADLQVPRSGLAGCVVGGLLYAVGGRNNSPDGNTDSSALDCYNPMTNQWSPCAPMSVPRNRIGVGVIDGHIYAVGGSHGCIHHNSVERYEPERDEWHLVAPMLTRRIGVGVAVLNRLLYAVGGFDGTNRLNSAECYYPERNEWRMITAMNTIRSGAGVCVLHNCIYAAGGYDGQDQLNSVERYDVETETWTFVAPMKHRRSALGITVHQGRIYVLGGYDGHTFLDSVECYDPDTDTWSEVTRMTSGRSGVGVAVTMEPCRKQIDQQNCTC

Row | Structure (SMILES) | IC50 [1] [nM] | IC50 [2] [nM]
1 | Cn1cc(C2CC2c2c(C(=O)O)cnn2-c2cccc(-c3cccc(C(O)CC4CCCCC4)c3)c2)nn1 (stereo not drawn) [Example 217, 1-(3′-(2-Cyclohexyl-1-hydroxyethyl)-[1,1′-biphenyl]-3-yl)-5-(2-(1-methyl-1H-1,2,3-triazol-4-yl)cyclopropyl)-1H-pyrazole-4-carboxylic acid] | 10 to 100 | 100 to 1000
2 | Cn1cc([C@@H]2C[C@H]2c2c(C(=O)O)cnn2-c2cccc(-c3cccc(OCC4CCCCC4C(F)(F)F)c3)c2)nn1 (mixture of isomers) [Example 148, 5-((1,2-trans)-2-(1-Methyl-1H-1,2,3-triazol-4-yl)cyclopropyl)-1-(3′-((2-(trifluoromethyl)cyclohexyl)methoxy)-[1,1′-biphenyl]-3-yl)-1H-pyrazole-4-carboxylic acid] | < 10 | 100 to 1000
3 | Cn1cc([C@H]2C[C@@H]2c2c(C(=O)O)cnn2-c2cccc(-c3cccc(OC[C@H]4CC[C@H](Cl)CC4)c3)c2)nn1 (racemic) [Example 185, 1-(3′-((4-Chlorocyclohexyl)methoxy)-[1,1′-biphenyl]-3-yl)-5-((1,2-trans)-2-(1-methyl-1H-1,2,3-triazol-4-yl)cyclopropyl)-1H-pyrazole-4-carboxylic Acid] | 10 to 100 | 100 to 1000
4 | COC(c1cccc(-c2cccc(-n3ncc(C(=O)O)c3C3CC3c3cn(C)nn3)c2)c1)C1CCCC1 (stereo not drawn) [Example 183, 1-(3′-(Cyclopentyl(methoxy)methyl)-[1,1′-biphenyl]-3-yl)-5-(2-(1-methyl-1H-1,2,3-triazol-4-yl)cyclopropyl)-1H-pyrazole-4-carboxylic acid] | 10 to 100 | 100 to 1000
5 | CCC[C@@H]1CCCCN1C(=O)c1cccc(-c2cccc(-n3ncc(C(=O)O)c3C3CC3c3cnn(C)c3)c2)c1F (stereo partly drawn) [Example 214, 1-(2′-Fluoro-3′-((R)-2-propylpiperidine-1-carbonyl)-[1,1′-biphenyl]-3-yl)-5-(2-(1-methyl-1H-pyrazol-4-yl)cyclopropyl)-1H-pyrazole-4-carboxylic Acid] | < 10 | 10 to 100
6 | CC(Oc1cccc(-c2cccc(-n3ncc(C(=O)O)c3C3CC3c3cn(C)nn3)c2)c1)C1CCCCC1 (stereo not drawn) [Example 219, 1-(3′-(1-Cyclohexylethoxy)-[1,1′-biphenyl]-3-yl)-5-(2-(1-methyl-1H-1,2,3-triazol-4-yl)cyclopropyl)-1H-pyrazole-4-carboxylic acid] | 10 to 100 | 100 to 1000
7 | CCCC1CCCCN1C(=O)c1cccc(-c2cccc(-n3ncc(C(=O)O)c3C3CC3c3cccnn3)c2)c1 (stereo not drawn) [Example 41, 1-[3′-(2-Propyl-piperidine-1-carbonyl)-biphenyl-3-yl]-5-(2-pyridazin-3-yl-cyclopropyl)-1H-pyrazole-4-carboxylic Acid] | < 10 | 10 to 100
8 | Cn1cc([C@@H]2C[C@H]2c2c(C(=O)O)cnn2-c2cccc(-c3cccc(OCC4CCC(F)(F)CC4)c3)c2)nn1 (racemic) [Example 145, 1-(3′-((4,4-Difluorocyclohexyl)methoxy)-[1,1′-biphenyl]-3-yl)-5-((1,2-trans)-2-(1-methyl-1H-1,2,3-triazol-4-yl)cyclopropyl)-1H-pyrazole-4-carboxylic acid] | 10 to 100 | 100 to 1000
9 | Cn1cc(C2CC2c2c(C(=O)O)cnn2-c2cccc(-c3cccc(C(=O)CC4CCCCC4)c3)c2)nn1 (stereo not drawn) [Example 215, 1-(3′-(2-Cyclohexylacetyl)-[1,1′-biphenyl]-3-yl)-5-(2-(1-methyl-1H-1,2,3-triazol-4-yl)cyclopropyl)-1H-pyrazole-4-carboxylic Acid] | 10 to 100 | 100 to 1000
10 | Cn1cc([C@H]2C[C@@H]2c2c(C(=O)O)cnn2-c2cccc(-c3cccc(OCC4CCCC(Cl)C4)c3)c2)nn1 (mixture of isomers) [Example 187, 1-(3′-((3-chlorocyclohexyl)methoxy)-[1,1′-biphenyl]-3-yl)-5-((1,2-trans)-2-(1-methyl-1H-1,2,3-triazol-4-yl)cyclopropyl)-1H-pyrazole-4-carboxylic acid] | 10 to 100 | 100 to 1000
11 | CCC[C@@H]1CCCCN1C(=O)c1cccc(-c2cc(Cl)cc(-n3ncc(C(=O)O)c3C3CC3c3cn(C)nn3)c2)c1 (stereo partly drawn) [Example 160, 1-(5-Chloro-3′-((R)-2-propylpiperidine-1-carbonyl)-[1,1′-biphenyl]-3-yl)-5-(2-(1-methyl-1H-1,2,3-triazol-4-yl)cyclopropyl)-1H-pyrazole-4-carboxylic Acid Compound with 2,2,2-trifluoroacetic Acid (1:1)] | < 10 | 10 to 100
12 | CCC[C@@H]1CCCCN1C(=O)c1cccc(-c2cccc(-n3ncc(C(=O)O)c3C3CC3c3cn(C)nn3)n2)c1 (stereo partly drawn) [Example 196, 5-(2-(1-Methyl-1H-1,2,3-triazol-4-yl)cyclopropyl)-1-(6-(3-((R)-2-propylpiperidine-1-carbonyl)phenyl)pyridin-2-yl)-1H-pyrazole-4-carboxylic Acid] | < 10 | 10 to 100
13 | CCCC1(C)CCc2cnn(-c3cccc(-c4cccc(-n5ncc(C(=O)O)c5C5CC5)c4)c3)c21 (stereo not drawn) [Example 205, 5-Cyclopropyl-1-(3′-(6-methyl-6-propyl-5,6-dihydrocyclopenta[c]pyrazol-1(4H)-yl)-[1,1′-biphenyl]-3-yl)-1H-pyrazole-4-carboxylic Acid] | 10 to 100 | 100 to 1000
14 | Cn1cc([C@@H]2C[C@H]2c2c(C(=O)O)cnn2-c2cccc(-c3cccc(OC(C4CCCCC4)C(F)(F)F)c3)c2)nn1 (mixture of isomers) [Example 157, 1-(3′-(1-Cyclohexyl-2,2,2-trifluoroethoxy)-[1,1′-biphenyl]-3-yl)-5-((1,2-trans)-2-(1-methyl-1H-1,2,3-triazol-4-yl)cyclopropyl)-1H-pyrazole-4-carboxylic Acid] | 10 to 100 | 100 to 1000
15 | CCCC1CCCCN1C(=O)c1cccc(-c2cccc(-n3ncc(C(=O)O)c3C3CC3c3cn(C)nn3)c2)c1 (stereo not drawn) [Example 42, 5-[2-(1-methyl-1H-1,2,3-triazol-4-yl)cyclopropyl]-1-{3-[3-(2-propylpiperidine-1-carbonyl)phenyl]phenyl}-1H-pyrazole-4-carboxylic Acid] | < 10 | 10 to 100
16 | C[C@@H]1CCC[C@H](C)N1C(=O)c1cccc(-c2cccc(-n3ncc(C(=O)O)c3C3CC3)c2)c1F [Example 21, 5-Cyclopropyl-1-(3-{3-[(2R,6S)-2,6-dimethylpiperidine-1-carbonyl]-2-fluorophenyl}phenyl)-1H-pyrazole-4-carboxylic Acid] | 100 to 1000 | 100 to 1000
17 | CO[C@H]1CC[C@H](COc2cccc(-c3cccc(-n4ncc(C(=O)O)c4[C@H]4C[C@@H]4c4cn(C)nn4)c3)c2)CC1 (racemic) [Example 176, 1-(3′-(((1R,4S)-4-Methoxycyclohexyl)methoxy)-[1,1′-biphenyl]-3-yl)-5-((1,2-trans)-2-(1-methyl-1H-1,2,3-triazol-4-yl)cyclopropyl)-1H-pyrazole-4-carboxylic acid] | 10 to 100 | 100 to 1000
18 | Cn1cc(C2CC2c2c(C(=O)O)cnn2-c2cccc(-c3cccc(OCc4ccccc4F)c3)c2)nn1 (stereo not drawn) [Example 222, 1-(3′-((2-Fluorobenzyl)oxy)-[1,1′-biphenyl]-3-yl)-5-(2-(1-methyl-1H-1,2,3-triazol-4-yl)cyclopropyl)-1H-pyrazole-4-carboxylic acid] | 10 to 100 | 100 to 1000
19 | CC(Oc1cccc(-c2cccc(-n3ncc(C(=O)O)c3[C@@H]3C[C@H]3c3cn(C)nn3)c2)c1)C1CCCCC1 (stereo partly drawn) [Example 163, 1-(3′-(1-Cyclohexylethoxy)-[1,1′-biphenyl]-3-yl)-5-((1R,2R)-2-(1-methyl-1H-1,2,3-triazol-4-yl)cyclopropyl)-1H-pyrazole-4-carboxylic acid] | 100 to 1000 | 1000 to 10000
20 | Cn1cc(C2CC2c2c(C(=O)O)cnn2-c2cccc(-c3cccc(SCC4CCCCC4)c3)c2)nn1 (stereo not drawn) [Example 179, 1-(3′-((Cyclohexylmethyl)thio)-[1,1′-biphenyl]-3-yl)-5-(2-(1-methyl-1H-1,2,3-triazol-4-yl)cyclopropyl)-1H-pyrazole-4-carboxylic acid] | 10 to 100 | 100 to 1000
21 | CCCCC1CCc2cnn(-c3cccc(-c4cccc(-n5ncc(C(=O)O)c5C5CC5)c4)c3)c21 (stereo not drawn) [Example 206, 1-(3′-(6-Butyl-5,6-dihydrocyclopenta[c]pyrazol-1(4H)-yl)-[1,1′-biphenyl]-3-yl)-5-cyclopropyl-1H-pyrazole-4-carboxylic Acid] | 100 to 1000 | 1000 to 10000
22 | Cn1cc(C2CC2c2c(C(=O)O)cnn2-c2cccc(-c3cccc(C(=O)C4CCCCC4)c3)c2)nn1 (stereo not drawn) [Example 243, 1-(3′-(Cyclohexanecarbonyl)-[1,1′-biphenyl]-3-yl)-5-(2-(1-methyl-1H-1,2,3-triazol-4-yl)cyclopropyl)-1H-pyrazole-4-carboxylic Acid] | 10 to 100 | 100 to 1000
23 | O=C(O)c1cnn(-c2cccc(-c3cccc(-n4ncc5c4CCC5)c3)c2)c1C1CC1 [Example 61, 5-Cyclopropyl-1-(3′-(5,6-dihydrocyclopenta[c]pyrazol-1(4H)-yl)-[1,1′-biphenyl]-3-yl)-1H-pyrazole-4-carboxylic Acid] | 1000 to 10000 | 1000 to 10000
24 | CCC[C@@H]1CCCCN1C(=O)c1cccc(-c2cc(C)cc(-n3ncc(C(=O)O)c3C3CC3c3cn(C)nn3)c2)c1 (stereo partly drawn) [Example 154, 5-(2-(1-Methyl-1H-1,2,3-triazol-4-yl)cyclopropyl)-1-(5-methyl-3′-((R)-2-propylpiperidine-1-carbonyl)-[1,1′-biphenyl]-3-yl)-1H-pyrazole-4-carboxylic Acid] | < 10 | 10 to 100
